Data on four compounds can be found in ChEMBL document CHEMBL3877331, “Affinity-Based Selectivity Profiling of an In-Class Selective Competitive Inhibitor of Acyl Protein Thioesterase 2” (ACS Med Chem Lett, 2017).

The target in assay [1] is T1, Ribosyldihydronicotinamide dehydrogenase [quinone] (Homo sapiens) (UniProt P16083).
T1 sequence (whole entry): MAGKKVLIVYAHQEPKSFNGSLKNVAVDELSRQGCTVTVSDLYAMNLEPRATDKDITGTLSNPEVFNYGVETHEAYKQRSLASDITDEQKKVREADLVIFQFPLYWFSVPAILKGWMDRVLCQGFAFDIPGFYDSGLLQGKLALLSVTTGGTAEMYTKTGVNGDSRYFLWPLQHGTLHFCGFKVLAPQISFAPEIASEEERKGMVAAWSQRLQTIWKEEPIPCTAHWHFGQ
As to the kind of experiment: Binding affinity to HEK293T cells-derived His-tagged NQO2 expressed in Escherichia coli BL21(DE3) assessed as stoichiometric complex formation at 10 uM after 5 mins by electrospray ionization native mass spectrometry. The note with it: HEK-293T.

Assay [2] has as its target T2, Acyl-protein thioesterase 2 (Homo sapiens, UniProt O95372). As to the kind of experiment: Inhibition of fluorescein-labeled ML349 binding to HEK293T cells-derived His-tagged APT2 expressed in Escherichia coli BL21(DE3) after 30 mins by fluorescence polarization assay. On the set-up: species or system HEK-293T.
Assay [3] has as its target T3, Pyridoxal kinase (Homo sapiens) (UniProt O00764).
T3 sequence (whole entry): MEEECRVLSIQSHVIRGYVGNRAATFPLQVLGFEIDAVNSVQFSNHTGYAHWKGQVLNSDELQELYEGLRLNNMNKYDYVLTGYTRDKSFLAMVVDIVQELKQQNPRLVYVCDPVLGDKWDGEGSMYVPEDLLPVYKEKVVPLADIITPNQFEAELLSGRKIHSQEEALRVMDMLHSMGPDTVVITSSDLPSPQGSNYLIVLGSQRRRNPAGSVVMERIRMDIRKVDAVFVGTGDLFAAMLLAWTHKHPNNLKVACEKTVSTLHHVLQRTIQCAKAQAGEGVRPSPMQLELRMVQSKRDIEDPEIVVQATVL
Nature of the assay: Binding affinity to PDXK in HEK293T cells at 50 uM incubated for 1 hr by mass spectrometry analysis relative to azide-PEG3-biotin. Particulars: HEK-293T. It counts as cell-based.

The test system of a further assay is MDCK. Nature of the assay: Binding affinity to APT2 in MDCK cells at 50 uM incubated for 1 hr by mass spectrometry analysis. Particulars: Canis lupus familiaris. It counts as cell-based.
The next assay deals with T4, Pyridoxal kinase (Homo sapiens, UniProt O00764).
T4 sequence (O00764 whole entry): T3 sequence (whole entry)
As to the kind of experiment: Inhibition of fluorescein-labeled ML349 binding to HEK293T cells-derived His-tagged PDXK expressed in Escherichia coli BL21(DE3) after 30 mins by fluorescence polarization assay. On the set-up: species or system HEK-293T.

The target of assay [4] is T2, Acyl-protein thioesterase 2. Nature of the assay: Binding affinity to APT2 in HEK293T cells at 50 uM incubated for 1 hr by mass spectrometry analysis relative to azide-PEG3-biotin. The assay is classed as cell-based. Particulars: HEK-293T.
The target of assay [5] is Deoxycytidine kinase (Homo sapiens) (UniProt P27707). Nature of the assay: Binding affinity to DCK in HEK293T cells at 50 uM incubated for 1 hr by mass spectrometry analysis relative to o-ML349-biotin. It counts as cell-based. Particulars: HEK-293T.
Chain of Deoxycytidine kinase (Homo sapiens) (P27707 whole entry, looked up): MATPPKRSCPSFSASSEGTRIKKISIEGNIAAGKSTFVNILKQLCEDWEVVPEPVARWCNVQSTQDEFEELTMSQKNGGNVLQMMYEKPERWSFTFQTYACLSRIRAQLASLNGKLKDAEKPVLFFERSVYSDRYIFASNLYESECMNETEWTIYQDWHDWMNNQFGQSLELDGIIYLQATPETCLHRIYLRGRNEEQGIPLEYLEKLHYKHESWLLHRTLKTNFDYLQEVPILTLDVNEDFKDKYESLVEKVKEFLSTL
In assay [6] the target is FAD synthase (Homo sapiens) (UniProt Q8NFF5). As to the kind of experiment: Binding affinity to FAD1 in HEK293T cells at 50 uM incubated for 1 hr by mass spectrometry analysis relative to o-ML349-biotin. The assay is classed as cell-based. The note with it: HEK-293T.
Chain of FAD synthase (Homo sapiens) (Q8NFF5 whole entry): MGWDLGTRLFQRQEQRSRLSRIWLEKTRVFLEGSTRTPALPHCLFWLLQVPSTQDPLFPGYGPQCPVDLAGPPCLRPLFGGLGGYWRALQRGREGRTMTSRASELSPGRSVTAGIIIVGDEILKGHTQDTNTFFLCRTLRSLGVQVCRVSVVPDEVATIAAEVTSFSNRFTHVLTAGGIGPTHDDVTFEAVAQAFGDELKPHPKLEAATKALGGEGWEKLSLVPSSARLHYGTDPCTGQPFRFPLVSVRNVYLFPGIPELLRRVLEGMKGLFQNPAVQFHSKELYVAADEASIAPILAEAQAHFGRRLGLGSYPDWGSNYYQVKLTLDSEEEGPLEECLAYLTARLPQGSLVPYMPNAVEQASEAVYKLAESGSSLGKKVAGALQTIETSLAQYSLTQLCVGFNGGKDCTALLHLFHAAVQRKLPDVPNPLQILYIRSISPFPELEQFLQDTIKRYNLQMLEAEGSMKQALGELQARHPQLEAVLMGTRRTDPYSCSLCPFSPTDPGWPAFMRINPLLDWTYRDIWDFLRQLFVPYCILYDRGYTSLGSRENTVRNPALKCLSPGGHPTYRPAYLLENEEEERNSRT
Assay [7] deals with T2, Acyl-protein thioesterase 2. As to the kind of experiment: Competitive inhibition of HEK293T cells-derived His-tagged APT2 expressed in Escherichia coli BL21(DE3) preincubated for 30 mins followed by substrate addition by resorufin dye based acetate hydrolysis assay. Details: species or system HEK-293T.
In assay [8] the target is T1, Ribosyldihydronicotinamide dehydrogenase [quinone] (Homo sapiens). Nature of the assay: Binding affinity to NQO2 in HEK293T cells at 50 uM incubated for 1 hr by mass spectrometry analysis relative to azide-PEG3-biotin. It counts as cell-based. Particulars: HEK-293T.
The target of assay [9] is FAD synthase (Homo sapiens) (UniProt Q8NFF5). Nature of the assay: Binding affinity to FAD1 in HEK293T cells at 50 uM incubated for 1 hr by mass spectrometry analysis relative to azide-PEG3-biotin. The assay is classed as cell-based. Particulars: HEK-293T.
Assay [10] has as its target T3, Pyridoxal kinase (Homo sapiens). Nature of the assay: Binding affinity to HEK293T cells-derived His-tagged PDXK expressed in Escherichia coli BL21(DE3) assessed as stoichiometric complex formation at 10 uM after 5 mins by electrospray ionization native mass spectrometry. The note with it: HEK-293T.
The target in assay [11] is T2, Acyl-protein thioesterase 2. Nature of the assay: Binding affinity to HEK293T cells-derived His-tagged APT2 expressed in Escherichia coli BL21(DE3) assessed as stoichiometric complex formation at 10 uM after 5 mins by electrospray ionization native mass spectrometry. Particulars: HEK-293T.
The target of assay [12] is T3, Pyridoxal kinase (Homo sapiens). As to the kind of experiment: Binding affinity to PDXK in HEK293T cells at 50 uM incubated for 1 hr by mass spectrometry analysis relative to o-ML349-biotin. Particulars: HEK-293T. The assay is classed as cell-based.
In assay [13] the target is T2, Acyl-protein thioesterase 2. Nature of the assay: Binding affinity to APT2 in HEK293T cells at 50 uM preincubated for 1 hr followed by FP-TAMRA labeling by in-gel fluorescence assay. The assay is classed as cell-based. The note with it: HEK-293T.
Assay [14] deals with Adenosine kinase (Homo sapiens) (UniProt P55263). As to the kind of experiment: Binding affinity to ADK in HEK293T cells at 50 uM incubated for 1 hr by mass spectrometry analysis relative to o-ML349-biotin. It counts as cell-based. The note with it: HEK-293T.
Chain of Adenosine kinase (Homo sapiens) (P55263 2-362 limits assumed): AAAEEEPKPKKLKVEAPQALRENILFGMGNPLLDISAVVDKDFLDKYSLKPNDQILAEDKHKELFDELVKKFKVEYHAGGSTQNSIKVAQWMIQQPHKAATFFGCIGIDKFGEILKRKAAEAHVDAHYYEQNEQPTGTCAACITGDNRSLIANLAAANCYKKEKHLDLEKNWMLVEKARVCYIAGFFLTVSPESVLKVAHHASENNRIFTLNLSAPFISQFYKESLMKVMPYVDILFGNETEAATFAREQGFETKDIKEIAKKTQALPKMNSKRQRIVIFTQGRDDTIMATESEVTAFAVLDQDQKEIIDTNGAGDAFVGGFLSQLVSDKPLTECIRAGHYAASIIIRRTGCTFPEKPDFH
In assay [15] the target is T2, Acyl-protein thioesterase 2. Nature of the assay: Binding affinity to APT2 in HEK293T cells at 50 uM incubated for 1 hr by mass spectrometry analysis relative to o-ML349-biotin. The assay is classed as cell-based. The note with it: HEK-293T.
The target of assay [16] is T1, Ribosyldihydronicotinamide dehydrogenase [quinone] (Homo sapiens). As to the kind of experiment: Binding affinity to NQO2 in HEK293T cells at 50 uM incubated for 1 hr by mass spectrometry analysis relative to o-ML349-biotin. The assay is classed as cell-based. Particulars: HEK-293T.
Assay [17] concerns the target Deoxycytidine kinase (Homo sapiens) (UniProt P27707). As to the kind of experiment: Binding affinity to DCK in HEK293T cells at 50 uM incubated for 1 hr by mass spectrometry analysis relative to azide-PEG3-biotin. It counts as cell-based. The note with it: HEK-293T.
Assay [18] has as its target Adenosine kinase (Homo sapiens) (UniProt P55263). As to the kind of experiment: Binding affinity to ADK in HEK293T cells at 50 uM incubated for 1 hr by mass spectrometry analysis relative to azide-PEG3-biotin. The assay is classed as cell-based. Particulars: HEK-293T.

Each structure is given as a SMILES string. Calls of active or inactive are those of the source. No cut-off for these calls is given here. Bounds are passed on as bounds.

T2 sequence (O95372 whole entry): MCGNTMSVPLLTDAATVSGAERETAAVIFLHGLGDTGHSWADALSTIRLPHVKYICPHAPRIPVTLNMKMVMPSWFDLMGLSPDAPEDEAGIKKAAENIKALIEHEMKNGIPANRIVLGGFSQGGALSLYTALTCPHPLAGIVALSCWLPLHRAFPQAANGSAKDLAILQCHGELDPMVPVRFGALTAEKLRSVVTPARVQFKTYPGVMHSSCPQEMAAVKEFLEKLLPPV

In the case of `O=C(CCCC[C@@H]1SC[C@@H]2NC(=O)N[C@@H]21)NCCOCCOCCOCCn1cc(COc2ccc(N3CCN(C(=O)c4cc5c(s4)-c4ccccc4S(=O)(=O)C5)CC3)cc2)nn1`, the result (in assay [1]; with MDCK; in assay [10]; in [11]; in assay [13]) was Active. In addition, the IC50 (in assay [2]; on Pyridoxal kinase) was greater than 10 µM throughout. In addition, the fold change (FC) in [3], in assay [4], in assay [5], in assay [6], in [8] and in assay [9] was greater than 5 each time. Moreover, the fold change (FC) in assay [12], in assay [14], in assay [15], in assay [16], in [17] and in assay [18] was greater than 5 throughout. The same compound displayed a Ki in [7] of 1.1 µM.
`O=C(CCCC[C@@H]1SC[C@@H]2NC(=O)N[C@@H]21)NCCOCCOCCOCCn1cc(COc2ccccc2N2CCN(C(=O)c3cc4c(s3)-c3ccccc3S(=O)(=O)C4)CC2)nn1` gave a Ki in assay [7] greater than 10 µM. The fold change (FC) in [8] and in assay [9] was 3 throughout.
In the case of `[N-]=[N+]=NCCOCCOCCOCCNC(=O)CCCC[C@@H]1SC[C@@H]2NC(=O)N[C@@H]21`, the Ki in assay [7] was greater than 10 µM.
For `COc1ccc(N2CCN(C(=O)c3cc4c(s3)-c3ccccc3S(=O)(=O)C4)CC2)cc1`, the result in [1], in assay [10] and in [11] was Active. At Pyridoxal kinase, the IC50 is greater than 10 µM.
